Results taken from paper PMC8909805, “Anticancer Activity of (S)-5-Chloro-3-((3,5-dimethylphenyl)sulfonyl)-N-(1-oxo-1-((pyridin-4-ylmethyl)amino)propan-2-yl)-1H-indole-2-carboxamide (RS4690), a New Dishevelled 1 Inhibitor” (Cancers, 2022).

target: T1, DVL1 binding to FZD4 (Homo sapiens, UniProt O14640); assay: Inhibition of DVL1 (DVL-GFP) recruitment by FZD4 at the plasma membrane of HEK293 cells; format: cell-based; settings: HEK293 cells co-transfected with HA-FZD4 and GFP-DVL-1; 24 h treatment; read-out: EC50 ± SD DVL1 Binding Inhibition
T1 construct: host or cells: HEK293
T1 sequence (O14640 1-695): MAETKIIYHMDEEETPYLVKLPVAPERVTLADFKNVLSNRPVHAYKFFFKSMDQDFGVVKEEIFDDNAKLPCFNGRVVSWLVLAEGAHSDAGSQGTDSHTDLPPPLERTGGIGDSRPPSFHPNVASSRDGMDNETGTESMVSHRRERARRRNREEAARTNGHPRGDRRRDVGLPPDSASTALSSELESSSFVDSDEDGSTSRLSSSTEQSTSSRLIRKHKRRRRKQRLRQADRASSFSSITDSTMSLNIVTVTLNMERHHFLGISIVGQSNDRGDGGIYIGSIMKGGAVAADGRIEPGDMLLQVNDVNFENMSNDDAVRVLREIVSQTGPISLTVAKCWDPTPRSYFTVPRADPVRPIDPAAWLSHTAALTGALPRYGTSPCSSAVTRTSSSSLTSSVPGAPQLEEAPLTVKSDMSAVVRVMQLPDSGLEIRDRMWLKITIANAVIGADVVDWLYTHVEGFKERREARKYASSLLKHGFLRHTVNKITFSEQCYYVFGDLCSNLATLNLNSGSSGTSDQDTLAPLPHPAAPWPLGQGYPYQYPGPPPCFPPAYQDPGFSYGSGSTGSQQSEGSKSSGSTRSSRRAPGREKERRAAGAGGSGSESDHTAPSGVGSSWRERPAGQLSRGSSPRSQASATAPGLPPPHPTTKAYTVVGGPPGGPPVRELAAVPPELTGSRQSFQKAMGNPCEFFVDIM
Method: HEK293 cells were seeded in 96-well tissue culture plates at a density of 5 × 10 ^3/well. After 16–24 h seeding, cells were co-transfected with HA-FZD4-wt (0.04 µg/well) and GFP-tagged DVL-1 (0.04 µg/well) using PEI (0.25 µL/well) in a final volume of 100 µL/well. After 24 h of transfection, the medium was replaced and supplemented with the indicated compounds diluted in culture medium. After 24 h of treatment, cells were fixed in 3.7% formaldehyde freshly diluted in PBS for 30 min at RT, quenched with 0.1 M glycine/PBS for 30 min at RT, and washed with PBS. Samples were observed under a Leica confocal fluorescent microscope. Inhibition of DVL recruitment was measured by counting the percentage of cells losing GFP-DVL-1 localization on the PM. Experiments were performed in triplicate, and the standard deviations are indicated.
The crucial role played by PDZ domains in the spreading of cellular signals and their aberrant activations in many human diseases makes the PDZ domains very attractive targets for drug discovery. […] To identify new DVL1 inhibitors, we followed a virtual screening approach by fixing as the main filter a pharmacophoric model. We speculated that compound 2, the recently reported inhibitor of NHERF1 PDZ1 domain [26], may be able also to bind the DVL PDZ domain. The activity of compound 2 was assayed in HEK293 cells transiently expressing both HA-tagged-FZD4 (HA-FZD4) and the chimeric construct DVL-GFP. In the absence of HA-FZD4, DVL-GFP is localized in punctate intracellular structures known as signalosomes. In the presence of FZD-4 expression, DVL-GFP is recruited on the PM of the cell showing a drastic change in localization. As previously reported, drugs acting as inhibitors of FZD4/DVL binding reduce the amount of DVL-GFP recruited on the PM. […] Thus, we used the information gained from the binding mode of compound 2 to design a pharmacophore model that would lead to the identification of new DVL1 PDZ binders. At the same time, to better distinguish between the inhibitory activities of DVL1 and NHERF1, we added a new query to the pharmacophore model. Actually, comparing the PDZ structures of the studied proteins, we identified a significant difference. The upper part of the carboxylic binding loop was delimited by Tyr24, Ile79 and Val86 for NHERF1, while we observed Leu12, Val75 and Ile81, respectively, for DVL1. […] This peculiar feature of the DVL1 PDZ was included in our pharmacophore model by adding a hydrophobic query to obtain the required selectivity (Figure S1, Supplementary Materials). […] Thus, for each molecule, we obtained 10 conformations, and all of the proposed binding poses (7000 molecules per 10 conformations) were scored by the fitting to the pharmacophore model. […]

For `Cc1cc(C)cc(S(=O)(=O)c2c(C(=O)N[C@H](C)C(=O)NCc3ccncc3)[nH]c3ccc(Cl)cc23)c1` [(R)-1], which EC50 is on record?
The EC50 was 29500 ± 900 nM.

With `Cc1cc(C)cc(S(=O)(=O)c2c(C(=O)N[C@@H](C)C(=O)NCc3ccncc3)[nH]c3ccc(Cl)cc23)c1` [(S)-1, (S)-5-Chloro-3-((3,5-dimethylphenyl)sulfonyl)-N-(1-oxo-1-((pyridin-4-ylmethyl)amino)propan-2-yl)-1H-indole-2-carboxamide] as the compound, how does the EC50 read?
Its EC50 is 490 ± 110 nM.

With `Cc1cc(C)cc(S(=O)(=O)c2c(C(=O)NC(C)C(=O)NCc3ccncc3)[nH]c3ccc(Cl)cc23)c1` (stereo not drawn) [Compound 1] as the compound, how does the EC50 read?
The EC50 was 740 ± 80 nM.
